Assay results reported in patent US9827189B2, “Stable parenteral DNJ compositions” (AMICUS THERAPEUTICS, INC., priority 2013, dated 2017).
Counter-ions that a name gives are not always drawn.

Test: Osmolality of 1-DNJ-HCl in sodium citrate buffer by freezing point
Assay type: physicochemical
Procedure: The molallity of 1-deoxynojirimycin chloride (1-DNJ-HCl) was determined by freezing point depreciation. 1-deoxynojirimycin chloride concentration ranged from 30 mg/mL to 60 mg/mL. Sodium citrate concentration ranged from 20 to 50 mM.

In the case of `OC[C@H]1NC[C@H](O)[C@@H](O)[C@@H]1O` [1-DNJ-HCl, 1-deoxynojirimycin hydrochloride], the Osmolality (1-DNJ-HCl 30 mg/mL, Sodium Citrate Buffer 20 mM) is reported as 311 mOsm/kg, the Osmolality (1-DNJ-HCl 30 mg/mL, Sodium Citrate Buffer 25 mM) is reported as 327 mOsm/kg and the Osmolality (1-DNJ-HCl 30 mg/mL, Sodium Citrate Buffer 30 mM) is reported as 343 mOsm/kg. The Osmolality (1-DNJ-HCl 30 mg/mL, Sodium Citrate Buffer 35 mM) was 358 mOsm/kg, the Osmolality (1-DNJ-HCl 30 mg/mL, Sodium Citrate Buffer 40 mM) was 374 mOsm/kg and the Osmolality (1-DNJ-HCl 30 mg/mL, Sodium Citrate Buffer 45 mM) was 389 mOsm/kg. It also gave an Osmolality (1-DNJ-HCl 35 mg/mL, Sodium Citrate Buffer 20 mM) of 353 mOsm/kg, an Osmolality (1-DNJ-HCl 35 mg/mL, Sodium Citrate Buffer 25 mM) of 369 mOsm/kg and an Osmolality (1-DNJ-HCl 35 mg/mL, Sodium Citrate Buffer 30 mM) of 384 mOsm/kg. For the same compound, the Osmolality (1-DNJ-HCl 35 mg/mL, Sodium Citrate Buffer 35 mM) was 400 mOsm/kg, the Osmolality (1-DNJ-HCl 35 mg/mL, Sodium Citrate Buffer 40 mM) was 415 mOsm/kg and the Osmolality (1-DNJ-HCl 35 mg/mL, Sodium Citrate Buffer 45 mM) was 431 mOsm/kg. The Osmolality (1-DNJ-HCl 35 mg/mL, Sodium Citrate Buffer 50 mM) was 447 mOsm/kg, the Osmolality (1-DNJ-HCl 40 mg/mL, Sodium Citrate Buffer 20 mM) was 394 mOsm/kg and the Osmolality (1-DNJ-HCl 40 mg/mL, Sodium Citrate Buffer 25 mM) was 410 mOsm/kg. For the same compound, the Osmolality (1-DNJ-HCl 40 mg/mL, Sodium Citrate Buffer 30 mM) was 426 mOsm/kg, the Osmolality (1-DNJ-HCl 40 mg/mL, Sodium Citrate Buffer 35 mM) was 441 mOsm/kg and the Osmolality (1-DNJ-HCl 40 mg/mL, Sodium Citrate Buffer 40 mM) was 457 mOsm/kg. For the same compound, the Osmolality (1-DNJ-HCl 40 mg/mL, Sodium Citrate Buffer 45 mM) was 472 mOsm/kg, the Osmolality (1-DNJ-HCl 40 mg/mL, Sodium Citrate Buffer 50 mM) was 488 mOsm/kg and the Osmolality (1-DNJ-HCl 45 mg/mL, Sodium Citrate Buffer 20 mM) was 436 mOsm/kg. For the same compound, the Osmolality (1-DNJ-HCl 45 mg/mL, Sodium Citrate Buffer 25 mM) was 452 mOsm/kg, the Osmolality (1-DNJ-HCl 45 mg/mL, Sodium Citrate Buffer 30 mM) was 467 mOsm/kg and the Osmolality (1-DNJ-HCl 45 mg/mL, Sodium Citrate Buffer 35 mM) was 483 mOsm/kg. It also gave an Osmolality (1-DNJ-HCl 45 mg/mL, Sodium Citrate Buffer 40 mM) of 498 mOsm/kg, an Osmolality (1-DNJ-HCl 45 mg/mL, Sodium Citrate Buffer 45 mM) of 514 mOsm/kg and an Osmolality (1-DNJ-HCl 45 mg/mL, Sodium Citrate Buffer 50 mM) of 530 mOsm/kg. For the same compound, the Osmolality (1-DNJ-HCl 50 mg/mL, Sodium Citrate Buffer 20 mM) was 477 mOsm/kg, the Osmolality (1-DNJ-HCl 50 mg/mL, Sodium Citrate Buffer 25 mM) was 493 mOsm/kg and the Osmolality (1-DNJ-HCl 50 mg/mL, Sodium Citrate Buffer 30 mM) was 509 mOsm/kg. It also gave an Osmolality (1-DNJ-HCl 50 mg/mL, Sodium Citrate Buffer 35 mM) of 524 mOsm/kg, an Osmolality (1-DNJ-HCl 50 mg/mL, Sodium Citrate Buffer 40 mM) of 540 mOsm/kg and an Osmolality (1-DNJ-HCl 50 mg/mL, Sodium Citrate Buffer 45 mM) of 555 mOsm/kg. It also gave an Osmolality (1-DNJ-HCl 50 mg/mL, Sodium Citrate Buffer 50 mM) of 571 mOsm/kg, an Osmolality (1-DNJ-HCl 55 mg/mL, Sodium Citrate Buffer 20 mM) of 519 mOsm/kg and an Osmolality (1-DNJ-HCl 55 mg/mL, Sodium Citrate Buffer 25 mM) of 535 mOsm/kg. The Osmolality (1-DNJ-HCl 55 mg/mL, Sodium Citrate Buffer 30 mM) was 550 mOsm/kg, the Osmolality (1-DNJ-HCl 55 mg/mL, Sodium Citrate Buffer 35 mM) was 566 mOsm/kg and the Osmolality (1-DNJ-HCl 55 mg/mL, Sodium Citrate Buffer 40 mM) was 581 mOsm/kg. It also gave an Osmolality (1-DNJ-HCl 55 mg/mL, Sodium Citrate Buffer 45 mM) of 597 mOsm/kg, an Osmolality (1-DNJ-HCl 55 mg/mL, Sodium Citrate Buffer 50 mM) of 613 mOsm/kg and an Osmolality (1-DNJ-HCl 60 mg/mL, Sodium Citrate Buffer 20 mM) of 560 mOsm/kg. It also gave an Osmolality (1-DNJ-HCl 60 mg/mL, Sodium Citrate Buffer 25 mM) of 576 mOsm/kg, an Osmolality (1-DNJ-HCl 60 mg/mL, Sodium Citrate Buffer 30 mM) of 592 mOsm/kg and an Osmolality (1-DNJ-HCl 60 mg/mL, Sodium Citrate Buffer 35 mM) of 607 mOsm/kg. For the same compound, the Osmolality (1-DNJ-HCl 60 mg/mL, Sodium Citrate Buffer 40 mM) was 623 mOsm/kg, the Osmolality (1-DNJ-HCl 60 mg/mL, Sodium Citrate Buffer 45 mM) was 638 mOsm/kg and the Osmolality (1-DNJ-HCl 60 mg/mL, Sodium Citrate Buffer 50 mM) was 654 mOsm/kg.
